Measured values as given in patent publication US20040176446A1, “Substituted amino dicarboxylic acid derivatives” (priority 2001, published 2004).

Row | Structure (SMILES) | melting point
1 | O=C(O)CCCCN(CCc1cc(-c2ccc(F)cc2F)ccc1OCc1ccc(C2CCCCC2)cc1)Cc1ccc(C(=O)O)cc1 [Example 1, 4-{[(4-Carboxybutyl)(2-{4-[(4-cyclohexylbenzyl)oxy]-2′,4′-difluoro-1,1′-biphenyl-3-yl}ethyl)amino]methyl}benzoic acid] | > 240 °C
2 | O=C(O)CCCCN(CCc1cc(-c2ccc(F)cc2F)ccc1OCc1ccc(-c2ccc(C(F)(F)F)cc2)cc1)Cc1ccc(C(=O)O)cc1 [Example 2, 4-({(4-Carboxybutyl)[2-(2′,4′-difluoro-4-{[4′-(trifluoromethyl)-1,1′-biphenyl-4-yl]methoxy}-1,1′-biphenyl-3-yl)ethyl]amino}methyl)benzoic acid] | > 240 °C
